Measured values from patent publication US11215608B2, “Methods of determining cellular chemosensitivity” (Dana-Farber Cancer Institute, Inc., priority 2006, dated 2022).
Ends that are not written are not given here. Peptide text beside a SMILES is read from it. * marks the point of attachment. Cbz = O=C(OCc1ccccc1)*; CH2F = FC*

Key:
[1] = test system: SU-DHL6; assay: BH3 profiling, cytochrome c release from lymphoma mitochondria; type: biochemical; details: SU-DHL 6
Excerpt: (§1) BH3 profiling allows for the prediction of response of cancer cells to anti-cancer therapeutics. For the purposes of this application, therapeutics can be divided into those that target anti-apoptotic BCL-2 proteins, and conventional agents. As a model test system, four lymphoma cell lines SU-DHL4, SU-DHL6, SU-DHL8, and SU-DHL 10 were employed. To perform BH3 profiling, the ability of a panel of sensitizer peptides to induce mitochondrial outer membrane permeabilization (MOMP) in mitochondria isolated from the lymphoma cells were tested. […] MOMP was measured by quantifying cytochrome c release by ELISA.
SU-DHL4 and SU-DHL6 a “primed” phenotype, based on the sensitivity to sensitizer BH3 peptides. […] SU-DHL-10 responded poorly to both sensitizer and activator peptides, indicating the loss of the effector arm.

[2] = test system: CLL mitochondria; assay: Cytochrome c release from CLL mitochondria; type: biochemical, human; details: peptides or compounds 100 μM
Description: Alternatively, mitochondria were purified from freshly isolated CLL cells and cell lines by mechanical disruption followed by differential centrifugation, as previously described (Letai et al., 2002). Mitochondrial suspensions were made at 0.5 mg protein/ml, except for the case of ABT-737 and negative control enantiomer treatments, where 0.1 mg/ml was used. Release of cytochrome c was determined by a comparison of cytochrome c in the pellet and supernatant quantitated by ELISA (R&D systems).
CLL mitochondria were incubated with BH3 peptides as well as ABT-737 and negative control enantiomer (FIG. 14). […] This pattern is diagnostic of mitochondrial BCL-2 dependence. […] Since the BH3 peptides in the sensitizer panel lack the ability to directly activate BAX and BAK, these experiments also implicated the presence of an activator molecule constitutively sequestered by BCL-2 in CLL.

[3] = test system: mouse liver mitochondria; assay: Cytochrome c release from mouse liver mitochondria; type: biochemical; details: no tBID, also at 10-fold higher concentrations
Description: (§2) Mitochondria were purified from liver and FL5.12cells as previously described (Letai et al., 2002). Mitochondria were purified from leukemia cells and 2B4 cells as previously described for FL5.12 cells. Mitochondria were incubated with treatments for 45 (mouse liver mitochondria) or 35 minutes (FL5.12, 2B4, and leukemic mitochondria). Release of cytochrome c was determined by a comparison of cytochrome c in the pellet and supernatant following treatment, quantitated by ELISA (R&D systems). When results of multiple experiments were averaged, results from solvent-only (DMSO) treatments values were subtracted from each, so that 0 release reflects that observed in solvent-only treatments.
To test if selective binding corresponded to ability of individual BH3 domains to selectively antagonize antiapoptotic function, a purified mitochondrial system was constructed in which the critical apoptosis decision making molecular machinery was reconstituted. […] The multidomain proapoptotic function was provided by the BAK which resides in mouse liver Mitochondria; mouse liver mitochondria contain no detectable BAX protein (Letai et al., 2002). The dominant antiapoptotic function was provided by one of the five different recombinant antiapoptotic proteins used in the binding assays. BH3 peptides provided the sensitizer function.
Furthermore, when the panel of sensitizer BH3 peptides was tested in the presence of the antiapoptotic protein BCL-XL, there was still no cytochrome c release, formally ruling out the possibility that the BH3 peptides were somehow directly converting antiapoptotic proteins to a proapoptotic function (FIG. 2). To induce MOMP and cytochrome c release, there appears to be an absolute requirement for an activator function, here provided by the tBID protein.

[4] = test system: leukemic mitochondria; assay: Cytochrome c release from BCL-2 dependent leukemia mitochondria; type: biochemical, mouse
Description: as §2
Leukemia prone mice were generated as previously described (Letai, 2004). Mouse experimental protocols conform to the relevant regulatory standards and were approved by the Dana-Farber Cancer Institute Animal Care and Use Committee.
Previous results have described a mouse acute lymphocytic leukemia model in which c-myc is constitutively expressed and human BCL-2 is repressibly expressed. In this model, when BCL-2 transgene expression is eliminated by administration of doxycycline, the leukemic cells undergo apoptosis, resulting in rapid resolution of the leukemia (Letai, 2004). This provides an ideal in vivo model of a BCL-2 dependent cancer. It was hypothesized that dependence on BCL-2 was due to a similar mechanism to that of the IL-3 deprived FL5.12-BCL-2 cells—that is, a death signal was being initiated and carried by an activator BH3 molecule, but BCL-2 was binding it and preventing its interaction with multidomain proapoptotic proteins.
Mitochondria were isolated from leukemia cells and exposed to sensitizer BH3 peptides. Subsequently, cytochrome c release was measured. As an internal control, mitochondria were isolated from liver from the leukemic mice in parallel (FIG. 8A).

[5] = test system: CLL cells; assay: Annexin-V death assay of freshly isolated primary CLL cells; type: cell-based, human
Description: Cells were stained with fluorescent conjugates of Annexin-V (BioVision) and propidium iodide (PI) and analyzed on a FACSCalibur machine (Becton-Dickinson).
15 ml of blood in heparin treated tubes was obtained from each anonymous CLL patient and processed without freezing. Equal volume of media (RPMI medium, 10% […], supplemented with […] and 10 mg/ml transferrin) was mixed with each sample and CLL cells isolated by centrifugation through Ficoll-PAQUE Plus (Amersham). Cells were washed twice in media and cultured at a density of 2.0×10^6 cells/ml for up to 48 hours. Samples for FIG. 11A were obtained from 24 consecutive patients identified with WBC >50,000/μl. All guidelines and regulations were followed in accordance with IRB protocols #99-224 (Dana-Farber Cancer Institute). Normal PBMC's were obtained from tubing discarded following platelet donation by anonymous normal donors and processed as above, except cultured without insulin and transferrin.
Experimental replicates were performed using lysates or mitochondria from different CLL samples. In main body, where a P value is given, it was obtained by using a two-tailed Students t-test, and P<0.05 was considered statistically significant. GraphPad Prism software was used to determine EC50 values by non-linear dose-response curve fitting and to perform Mann-Whitney nonparametric testing in Table 5.
Freshly isolated primary CLL cells were incubated with ABT-737 or negative control enantiomer. After 48 hours, death was assessed using Annexin-V staining.

[6] = test system: mitochondria from FL5.12 cells; assay: Cytochrome c release from FL5.12 mitochondria; type: biochemical, murine
Description: as §2, with “systems).” for “systems). When results of multiple experiments were averaged, results from solvent-only (DMSO) treatments values were subtracted from each, so that 0 release reflects that observed in solvent-only treatments.”
Mitochondria were isolated from wt FL5.12 cells and FL5.12-BCL-2 cells in the presence of IL-3, and from FL5.12-BCL-2 cells following 24 hours of IL-3 deprivation. […] Mitochondrial pellets were subjected to chemical crosslinking as previously described (Letai et al., 2002).

[7] = test system: SU-DHL8; assay: BH3 profiling, cytochrome c release from lymphoma mitochondria; type: biochemical; details: SU-DHL-8
Excerpt: as §1

[8] = FL5.12-BCL-2 cells deprived of IL-3 for 24 hours, peptides 10 μM

For `CC[C@H](C)[C@H](NC(=O)[C@H](CC(C)C)NC(=O)[C@H](CCC(N)=O)NC(=O)[C@H](CC(C)C)NC(=O)[C@H](CCCCN)NC(=O)[C@H](CCCNC(=N)N)NC(=O)[C@H](C)NC(=O)[C@@H](NC(=O)[C@H](CCC(N)=O)NC(=O)[C@@H](NC(=O)[C@H](CCC(=O)O)NC(=O)[C@H](C)NC(=O)[C@H](CCC(N)=O)NC(=O)[C@H](Cc1c[nH]cn1)NC(=O)CCCCCNC(=S)Nc1ccc2c(c1)C(=O)OC21c2ccc(O)cc2Oc2cc(O)ccc21)C(C)C)[C@@H](C)CC)C(=O)N[C@@H](C)C(=O)N[C@@H](CC(=O)O)C(=O)N[C@@H](CCC(N)=O)C(=O)N[C@@H](Cc1ccccc1)C(=O)N[C@@H](Cc1c[nH]cn1)C(=O)N[C@@H](CCCNC(=N)N)C(=O)O` [BMF], the “mitochondrial sensitivity to BH3 peptide” value [1] was “strong”, the cytochrome c release [2] was “induce cytochrome c release” and the “cytochrome c release by peptide alone” value [3] was “none of the sensitizer BH3 peptides by themselves can induce cytochrome c release significantly above background”. The cytochrome c release [4] was “capable of inducing near total cytochrome c release”.

Compound `CN(C)CC[C@@H](CSc1ccccc1)Nc1ccc(S(=O)(=O)NC(=O)c2ccc(N3CCN(Cc4ccccc4-c4ccc(Cl)cc4)CC3)cc2)cc1[N+](=O)[O-]` [NCE] has an EC50 ([5]; twenty-four CLL samples, 48 hours, read-out: mean EC50, apoptosis of CLL cells) of 574 nM.

For “BH3 domain peptide of BNIP3-a, VVEGEKEVEALKKSADWVSD (SEQ ID NO: 9) (not fully specified (N-terminus))”, the cytochrome c release [2] was “do not” and the “cytochrome c release by peptide alone” value [3] was “none of the sensitizer BH3 peptides by themselves can induce cytochrome c release significantly above background”.

In the case of `CC[C@H](C)[C@H](NC(=O)[C@H](CC(N)=O)NC(=O)[C@H](CCCNC(=N)N)NC(=O)[C@@H](NC(=O)[C@@H](NC(=O)[C@H](CC(=O)O)NC(=O)[C@H](CCC(=O)O)NC(=O)CCCCCNC(=S)Nc1ccc2c(c1)C(=O)OC21c2ccc(O)cc2Oc2cc(O)ccc21)[C@@H](C)CC)[C@@H](C)CC)C(=O)N[C@@H](C)C(=O)N[C@@H](CCCNC(=N)N)C(=O)N[C@@H](Cc1c[nH]cn1)C(=O)N[C@@H](CC(C)C)C(=O)N[C@@H](C)C(=O)N[C@@H](CCC(N)=O)C(=O)N[C@H](C(=O)NCC(=O)N[C@@H](CC(=O)O)C(=O)N[C@@H](CO)C(=O)N[C@@H](CCSC)C(=O)N[C@@H](CC(=O)O)C(=O)N[C@@H](CCCNC(=N)N)C(=O)O)C(C)C` [BID], the cytochrome c release [6, 8] is reported as “sensitivity to 10 μM BID BH3 is restored”, the cytochrome c release ([6]; FL5.12-BCL-2 cells with IL-3, peptides 10 μM) is reported as “BCL-2 overexpression inhibits release” and the cytochrome c release ([6]; wt FL5.12 cells with IL-3, peptides 10 uM) is reported as “potently induce cytochrome c release”. For the same compound, the “mitochondrial sensitivity to BH3 peptide” value [7] was “responding strongly”.

For “second BH3 domain peptide of murine NOXA, PADLKDECAQLRRIGDKVNL (SEQ ID NO: 7) (not fully specified (N-terminus)) [NOXA B]”, the “cytochrome c release by peptide alone” value [3] was “none of the sensitizer BH3 peptides by themselves can induce cytochrome c release significantly above background”.

In the case of `CC[C@H](C)[C@H](NC(=O)[C@H](CS)NC(=O)[C@H](C)NC(=O)[C@H](CC(C)C)NC(=O)[C@H](CCCNC(=N)N)NC(=O)[C@H](CC(C)C)NC(=O)[C@H](C)NC(=O)[C@H](CC(C)C)NC(=O)[C@H](C)NC(=O)[C@H](CC(=O)O)NC(=O)[C@H](CO)NC(=O)CNC(=O)[C@H](CCC(=O)O)NC(=O)[C@H](CCSC)NC(=O)CCCCCNC(=S)Nc1ccc2c(c1)C(=O)OC21c2ccc(O)cc2Oc2cc(O)ccc21)C(=O)NCC(=O)N[C@@H](CC(=O)O)C(=O)N[C@@H](CCC(=O)O)C(=O)N[C@@H](CCSC)C(=O)N[C@@H](CC(=O)O)C(=O)N[C@H](C(=O)O)C(C)C` [BIK], the cytochrome c release [6, 8] is reported as “does not induce cytochrome c release”, the “cytochrome c release by peptide alone” value [3] is reported as “none of the sensitizer BH3 peptides by themselves can induce cytochrome c release significantly above background” and the cytochrome c release [4] is reported as “capable of inducing near total cytochrome c release”.

For `CC(C)C[C@H](NC(=O)[C@H](C)NC(=O)[C@H](CCCCN)NC(=O)[C@H](CC(C)C)NC(=O)[C@H](CCCNC(=N)N)NC(=O)[C@H](C)NC(=O)[C@H](C)NC(=O)[C@@H](NC(=O)[C@H](CC(C)C)NC(=O)[C@H](CCC(N)=O)NC(=O)[C@H](C)NC(=O)[C@H](C)NC(=O)[C@H](CO)NC(=O)[C@H](CO)NC(=O)CCCCCNC(=S)Nc1ccc2c(c1)C(=O)OC21c2ccc(O)cc2Oc2cc(O)ccc21)[C@@H](C)O)C(=O)NCC(=O)N[C@@H](CC(=O)O)C(=O)N[C@@H](CCC(=O)O)C(=O)N[C@@H](CC(C)C)C(=O)N[C@@H](Cc1c[nH]cn1)C(=O)N[C@@H](CCC(N)=O)C(=O)O` [HRK], the cytochrome c release [2] was “do not” and the “cytochrome c release by peptide alone” value [3] was “none of the sensitizer BH3 peptides by themselves can induce cytochrome c release significantly above background”.

“BADmut: point mutant (L→A) of BAD BH3, LWAAQRYGREARRMSDEFEGSFKGL (SEQ ID NO: 13), negative control (Chemically synthesized primer)” was tested, and the cytochrome c release [2] was “do not”.

With `COC(=O)C[C@H](NC(=O)[C@H](C)NC(=O)[C@@H](NC(=O)OCc1ccccc1)C(C)C)C(=O)CF` [ZVAD-fmk] (Cbz-Val-Ala-Asp(OMe)-CH2F) the “protection against ABT-737-induced death” value ([5]; co-treatment, 200 μM) was “protects against ABT-737-induced death”.
